Assay results taken from patent US9366677B2, “Methods for analyzing biological macromolecular complexes and use thereof” (Max-Planck-Gesellshaft zur Foerderung der Wissenschaften …, priority 2011, dated 2016).
“Also recorded” adds a separate entry of the source.

Target: GroEL/GroES (Escherichia coli, UniProt P0A6F5)
Assay: Thermofluor (DSF) unfolding of equimolar GroEL/GroES with adenine nucleotides
Type: binding
Details: in the presence of the nucleotide
From the text: In a next proof of principle for the validity of the method according to the present invention, it has been determined whether thermal unfolding was suitable to find small molecules, which stabilize molecular machines similarly as has been documented for single-domain proteins (Ericsson et al. 2006, Analytical Biochemistry, 357:289-298). For this the GroEL/GroES (homo-tetradecameric 800 kDa and homo-heptameric 70 kDa, respectively) chaperonin system has been analysed. Two important properties of the chaperonin system have been well documented in the literature (Sigler et al., 1998, Annual Reviews in Biochemistry, 67:581-608; Tang et al., 2006, Cell, 125:908-914). First, GroEL forms a double heptameric ring structure, which exposes hydrophobic residues on one face, where non-native substrate protein can bind. Second, the binding of adenine-nucleotides to GroEL induces a conformational change, which causes the previously exposed hydrophobic residues to be buried and is essential for GroES binding to one face of the GroEL double ring. Therefore, measurements according to the present invention of an equimolar GroEL/GroES should yield a high initial fluorescence owing to the solvent-exposed hydrophobic residues, which gradually decreases upon temperature ramping. […]

Sequence of GroEL/GroES (P0A6F9 whole entry): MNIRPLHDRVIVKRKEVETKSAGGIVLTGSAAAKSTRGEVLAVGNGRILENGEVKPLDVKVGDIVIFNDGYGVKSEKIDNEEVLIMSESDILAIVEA
Sequence of GroEL/GroES (P0A6F5 2-548): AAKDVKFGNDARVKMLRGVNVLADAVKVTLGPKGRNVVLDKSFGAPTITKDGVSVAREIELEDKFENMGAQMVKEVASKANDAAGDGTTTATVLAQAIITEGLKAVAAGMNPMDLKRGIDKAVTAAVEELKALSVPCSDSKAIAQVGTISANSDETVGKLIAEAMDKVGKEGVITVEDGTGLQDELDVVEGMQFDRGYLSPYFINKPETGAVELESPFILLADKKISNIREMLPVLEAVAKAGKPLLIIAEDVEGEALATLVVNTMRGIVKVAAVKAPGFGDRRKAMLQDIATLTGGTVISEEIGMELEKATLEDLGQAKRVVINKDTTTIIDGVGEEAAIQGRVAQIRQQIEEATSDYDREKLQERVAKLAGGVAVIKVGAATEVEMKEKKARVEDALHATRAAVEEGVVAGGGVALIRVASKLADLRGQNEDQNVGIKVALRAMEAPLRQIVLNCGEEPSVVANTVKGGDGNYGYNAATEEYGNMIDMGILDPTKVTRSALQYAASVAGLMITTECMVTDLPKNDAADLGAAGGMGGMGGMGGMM

Row | Structure (SMILES) | unfolding transition of GroEL/GroES (complex formation)
1 | Nc1ncnc2c1ncn2[C@@H]1O[C@H](COP(=O)(O)OP(=O)(O)OP(=O)(O)O)[C@@H](O)[C@H]1O [ATP] | complexes are formed; also recorded: single—apparent two-state—unfolding transition
2 | Nc1ncnc2c1ncn2[C@H]1C[C@H](O)[C@@H](COP(=O)(O)OP(=O)(O)OP(=O)(O)O)O1 [dATP] | complexes are formed; also recorded: single—apparent two-state—unfolding transition
